Measurements: BigSolDB 2.1

O=C1CCc2cc(OCCCCc3nnnn3C3CCCCC3)ccc2N1
solubility (mole fraction) (in 1,4-dioxane, 288.15 K): 0.00525 | solubility (mole fraction) (in 1,4-dioxane, 293.15 K): 0.0061 | solubility (mole fraction) (in 1,4-dioxane, 298.15 K): 0.00708 | solubility (mole fraction) (in 1,4-dioxane, 303.15 K): 0.00819 | solubility (mole fraction) (in 1,4-dioxane, 308.15 K): 0.0095 | solubility (mole fraction) (in 1,4-dioxane, 313.15 K): 0.0112 | solubility (mole fraction) (in 2-butanone, 273.15 K): 0.00289 | solubility (mole fraction) (in 2-butanone, 278.15 K): 0.00345 | solubility (mole fraction) (in 2-butanone, 283.15 K): 0.00399 | solubility (mole fraction) (in 2-butanone, 288.15 K): 0.00464 | solubility (mole fraction) (in 2-butanone, 293.15 K): 0.00529 | solubility (mole fraction) (in 2-butanone, 298.15 K): 0.006 | solubility (mole fraction) (in 2-butanone, 303.15 K): 0.00677 | solubility (mole fraction) (in 2-butanone, 308.15 K): 0.00774 | solubility (mole fraction) (in 2-butanone, 313.15 K): 0.00881 | solubility (mole fraction) (in acetone, 273.15 K): 0.00168 | solubility (mole fraction) (in acetone, 278.15 K): 0.00206 | solubility (mole fraction) (in acetone, 283.15 K): 0.00244 | solubility (mole fraction) (in acetone, 288.15 K): 0.00287 | solubility (mole fraction) (in acetone, 293.15 K): 0.00332 | solubility (mole fraction) (in acetone, 298.15 K): 0.00381 | solubility (mole fraction) (in acetone, 303.15 K): 0.00433 | solubility (mole fraction) (in acetone, 308.15 K): 0.00487 | solubility (mole fraction) (in acetone, 313.15 K): 0.00557 | solubility (mole fraction) (in acetonitrile, 273.15 K): 0.0003 | solubility (mole fraction) (in acetonitrile, 278.15 K): 0.000506 | solubility (mole fraction) (in acetonitrile, 283.15 K): 0.000705 | solubility (mole fraction) (in acetonitrile, 288.15 K): 0.000935 | solubility (mole fraction) (in acetonitrile, 293.15 K): 0.00119 | solubility (mole fraction) (in acetonitrile, 298.15 K): 0.00151 | solubility (mole fraction) (in acetonitrile, 303.15 K): 0.00187 | solubility (mole fraction) (in acetonitrile, 308.15 K): 0.00226 | solubility (mole fraction) (in acetonitrile, 313.15 K): 0.00273 | solubility (mole fraction) (in ethanol, 273.15 K): 0.000168 | solubility (mole fraction) (in ethanol, 278.15 K): 0.000282 | solubility (mole fraction) (in ethanol, 283.15 K): 0.000406 | solubility (mole fraction) (in ethanol, 288.15 K): 0.00054 | solubility (mole fraction) (in ethanol, 293.15 K): 0.00069 | solubility (mole fraction) (in ethanol, 298.15 K): 0.000847 | solubility (mole fraction) (in ethanol, 303.15 K): 0.00102 | solubility (mole fraction) (in ethanol, 308.15 K): 0.00122 | solubility (mole fraction) (in ethanol, 313.15 K): 0.00144 | solubility (mole fraction) (in ethyl acetate, 273.15 K): 0.000115 | solubility (mole fraction) (in ethyl acetate, 278.15 K): 0.000205 | solubility (mole fraction) (in ethyl acetate, 283.15 K): 0.00031 | solubility (mole fraction) (in ethyl acetate, 288.15 K): 0.000428 | solubility (mole fraction) (in ethyl acetate, 293.15 K): 0.000556 | solubility (mole fraction) (in ethyl acetate, 298.15 K): 0.000704 | solubility (mole fraction) (in ethyl acetate, 303.15 K): 0.000861 | solubility (mole fraction) (in ethyl acetate, 308.15 K): 0.00102 | solubility (mole fraction) (in ethyl acetate, 313.15 K): 0.00119 | solubility (mole fraction) (in isopropanol, 273.15 K): 8.4e-05 | solubility (mole fraction) (in isopropanol, 278.15 K): 0.000155 | solubility (mole fraction) (in isopropanol, 283.15 K): 0.000233 | solubility (mole fraction) (in isopropanol, 288.15 K): 0.000324 | solubility (mole fraction) (in isopropanol, 293.15 K): 0.000421 | solubility (mole fraction) (in isopropanol, 298.15 K): 0.000543 | solubility (mole fraction) (in isopropanol, 303.15 K): 0.000683 | solubility (mole fraction) (in isopropanol, 308.15 K): 0.000833 | solubility (mole fraction) (in isopropanol, 313.15 K): 0.000981 | solubility (mole fraction) (in methanol, 273.15 K): 0.000258 | solubility (mole fraction) (in methanol, 278.15 K): 0.00041 | solubility (mole fraction) (in methanol, 283.15 K): 0.000573 | solubility (mole fraction) (in methanol, 288.15 K): 0.000754 | solubility (mole fraction) (in methanol, 293.15 K): 0.000955 | solubility (mole fraction) (in methanol, 298.15 K): 0.00117 | solubility (mole fraction) (in methanol, 303.15 K): 0.00141 | solubility (mole fraction) (in methanol, 308.15 K): 0.00166 | solubility (mole fraction) (in methanol, 313.15 K): 0.00193 | solubility (mole fraction) (in n-butanol, 273.15 K): 0.000437 | solubility (mole fraction) (in n-butanol, 278.15 K): 0.000656 | solubility (mole fraction) (in n-butanol, 283.15 K): 0.000907 | solubility (mole fraction) (in n-butanol, 288.15 K): 0.00119 | solubility (mole fraction) (in n-butanol, 293.15 K): 0.0015 | solubility (mole fraction) (in n-butanol, 298.15 K): 0.00184 | solubility (mole fraction) (in n-butanol, 303.15 K): 0.00222 | solubility (mole fraction) (in n-butanol, 308.15 K): 0.00263 | solubility (mole fraction) (in n-butanol, 313.15 K): 0.00307 | solubility (mole fraction) (in n-propanol, 273.15 K): 0.000206 | solubility (mole fraction) (in n-propanol, 278.15 K): 0.000334 | solubility (mole fraction) (in n-propanol, 283.15 K): 0.000487 | solubility (mole fraction) (in n-propanol, 288.15 K): 0.000634 | solubility (mole fraction) (in n-propanol, 293.15 K): 0.000813 | solubility (mole fraction) (in n-propanol, 298.15 K): 0.00098 | solubility (mole fraction) (in n-propanol, 303.15 K): 0.00116 | solubility (mole fraction) (in n-propanol, 308.15 K): 0.00136 | solubility (mole fraction) (in n-propanol, 313.15 K): 0.0016
